{
  "source": "paper PMC7717705",
  "about": "“Topoisomerases inhibition and DNA binding mode of daunomycin–oligoarginine conjugate” (Journal of Enzyme Inhibition and Medicinal Chemistry, 2020)",
  "key": {"Calf Thymus-DNA (ctDNA)": {"tested_on": "Calf Thymus-DNA (ctDNA)", "experiment": "DNA thermal melting monitored by circular dichroism", "type": "binding", "details": "4 µM drug, ctDNA 0.2 mg/mL, Tris–HCl buffer, λ = 260 nm", "method": "Melting studies were performed on a JascoJ-810 spectropolarimeter as described above by raising the temperature from 5 to 90 °C in 1 °C/min increments using a circulating water bath and monitoring the profiles at λ = 260 nm.\nThe DNA thermal melting was measured by monitoring the changes of HT[V] signal with temperature. Melting temperatures (Tm) were determined for each transition data by fitting sigmoidal curves using Boltzmann equations and obtaining good R-squared values (>0.95)."}, "h-TopoIIα": {"tested_on": "h-TopoIIα", "experiment": "h-TopoIIα DNA relaxation assay (negatively supercoiled pBs plasmid, agarose gel)", "type": "biochemical, human", "details": "drug 1.2 μM; h-TopoIIα 0.4 units; pBs 7.5 nM; drug-DNA pre-incubation 10 min at 4 °C, then 30 min at 30 °C; pH 7.9, 1 mM ATP; 1.2% agarose gel, ethidium bromide; three independent assays", "method": "(§1) Human topoisomerase IIα (h-TopoIIα) was purchased from Affymetrix (product number 78303) and stored at −20 °C. Human Topoisomerase I (Sigma, St. Louis, MO). pBluescript (pBs) negatively supercoiled plasmid was directly extracted from an over-night E. coli cell culture by Invitrogen HiPure Plasmid Midi prep Kit according to the instruction of the manufacturers.\n(§2) DNA relaxation assays were performed as previously described[24]^,[25] using the negative supercoiled pBluScript plasmid (pBS) purified from Escherichia coli as a substrate of DNA topoisomerases.\nFor h-TopoII-α assay the enzyme (0.4 units) was incubated for 30 min at 30 °C with negatively supercoiled pBS plasmid (7.5 nM), in a final volume of 20 µl of 1× reaction Buffer (10 mM Tris-HCl, pH 7.9, 50 mM NaCl, 50 mM KCl, 0.1 mM EDTA, 5 mM MgCl2, 15 µg/ml BSA, 1 mM ATP). […]\n(§3) All reactions were stopped by the addition of SDS to a final concentration of 1% and the products were analysed by electrophoresis on a 1.2% agarose gel in presence of 0.5X Tris-Borate EDTA buffer. […] Finally the DNA bands were visualised using a BioRad Versadoc imaging system and quantified by Quantity One® software. The relative intensity of each band in the experiment was measured and used to calculate the amount of total DNA and the fraction of total products. For each condition the relaxation activity was expressed as a percentage of DNA products on total DNA[26]."}, "[1]": {"experiment": "Fluorescence emission spectrum", "type": "physicochemical", "details": "drug 10 µM in 20 mM Tris buffer, pH 7.5; λ = 500–750 nm", "method": "(§4) Fluorescence measurements of Dau and Dau-Arg6 were carried out with a JASCO spectrofluorimeter (FP8200) using Quartz cells of 1 cm. Spectra were recorded at drug concentration of 10 µM in a final volume of 1 ml of 20 mM Tris buffer (pH 7.5)."}, "DNA plasmid (pBs)": {"tested_on": "DNA plasmid (pBs)", "experiment": "Fluorescence quenching titration with plasmid DNA", "type": "binding", "details": "drug 10 µM, pBs plasmid 5 to 40 nM, 20 mM Tris pH 7.5, 5 min equilibrium, room temperature", "method": "as §4\nFor quenching experiment fluorescence titrations were conducted by keeping the concentration of drugs constant and varying the concentration of pBs plasmid from 5 to 40 nM. The spectroscopic measurements were recorded after 5 min to reach the equilibrium between the drugs and DNA. The spectra were recorded at room temperature in the wavelengths range of λ = 500–700 nm."}, "Calf Thymus DNA (ctDNA)": {"tested_on": "Calf Thymus DNA (ctDNA)", "experiment": "Circular dichroism / induced circular dichroism (ICD) of ctDNA", "type": "binding", "method": "Circular dichroism (CD) measurements were performed on a JascoJ-810 spectropolarimeter using a 0.1 cm path-length quartz cuvette at room temperature and the following parameters: three scans at a speed of 20 nm/min, 3 accumulations, 4 s time constant, 1 nm band width and 0.2 nm data pitch.\nThe spectral bandwidth was set up at 1 nm in the wavelength range of λ = 225–300 nm. The CD spectra of Calf Thymus DNA (ctDNA; 0.2 mg/mL) with or without drug (at selected concentrations) were measured under a nitrogen atmosphere using a 10 mM Tris-HCl buffer at pH 7.5. Results are presented as a mean of three scans and the buffer background was electronically subtracted from each measurement.\nICD measurements were recorded by keeping the concentration of ctDNA constant (0.2 mg/mL) and increasing drugs concentrations from 0 to 120 µM."}, "h-TopoI": {"tested_on": "h-TopoI", "experiment": "h-TopoI DNA relaxation assay (negatively supercoiled pBluescript plasmid, agarose gel)", "type": "biochemical, human", "details": "drug 1.2 uM (not saturating); h-TopoI 100 nM; plasmid 7.5 nM; drug-DNA pre-incubation 10 min at 4 °C, then 60 min at 37 °C; pH 7.0; 1.2% agarose gel, ethidium bromide", "method": "as §1, §2\nFor h-TopoI assay the enzyme (100 nM), was incubated for 60 min at 37 °C with negatively supercoiled pBluescript plasmid (7.5 nM) in a final volume of 20 µL of 1X reaction Buffer (10 mM Tris-HCl, pH 7.0, 100 mM NaCl, 0.1 mM NaEDTA, 10 mM MgCL2 and 50 µg/ml BSA). […]\nas §3"}},
  "data": [
    {"molecule": "COc1cccc2c1C(=O)c1c(O)c3c(c(O)c1C2=O)C[C@@](O)(C(C)=O)C[C@@H]3O[C@H]1C[C@H](N)[C@H](O)[C@H](C)O1", "note": "[Dau, daunomycin]", "values": [
      {"measurement": "melting temperature (Tm) of ctDNA with drug", "setting": "Calf Thymus-DNA (ctDNA); 5 to 90 °C at 1 °C/min, Boltzmann fit, ctDNA alone 81.3 °C", "value": 90.3, "unit": "°C"},
      {"measurement": "increase in melting temperature of ctDNA", "setting": "Calf Thymus-DNA (ctDNA); versus ctDNA without drugs (81 °C)", "value": "about 9 °C"},
      {"measurement": "inhibition of the total h-TopoIIα activity (DNA relaxation)", "setting": "h-TopoIIα", "value": 50, "unit": "%"},
      {"measurement": "emission maximum λmax", "setting": "[1]", "value": 596, "unit": "nm"},
      {"measurement": "fluorescence intensity on titration with DNA plasmid", "setting": "DNA plasmid (pBs)", "value": "decreases with increasing concentration of DNA"},
      {"measurement": "DNA binding mode", "setting": "Calf Thymus DNA (ctDNA); CD studies with ctDNA 0.2 mg/mL, 10 mM Tris-HCl pH 7.5", "value": "mainly by intercalation"},
      {"measurement": "change of negative CD band of ctDNA at λ = 245 nm", "setting": "Calf Thymus DNA (ctDNA); ctDNA 0.2 mg/mL, 10 mM Tris-HCl pH 7.5, room temperature, increasing drug concentration, mean of three scans", "value": "shifting to zero level"},
      {"measurement": "inhibition of the TopoI activity (DNA relaxation)", "setting": "h-TopoI", "value": 20, "unit": "%"}
    ]}
  ]
}
